Legend:
[1] = non-sugar natural sweeteners of Momordica grosvenori juice or extract; cited from earlier work
[2] = Kinetics of reaction: degradation of Phe and Reb-A, Gluc, Xyl, Suc at various pH-conditions (HPLC/MS); assay type: physicochemical
Experimental: Quantitative evaluation was performed using external standardization.
Kinetics of Reaction in dependence of pH-conditions

[3] = Assay to test reducing power (iron-III reduction); conditions: iron-III reduction and radical scavenging (FIG. 49, FIG. 50); amino acids and Reb-A, 100° C., pH 7.8
Experimental: 0.2 M Sodium phosphate buffer, pH=6.6; 500 mg Potassium ferric(III)cyanide/50 mL water, 10% Trichloroacetic acid; 20 mg Iron-III-Chloride/20 mL water; Calibration samples were prepared with Ascorbic acid in a concentration of 0-100 μg/mL 0.2 M Sodium phosphate buffer, pH=6.6 (freshly prepared); as negative control sample water was used.
Samples in aqueous solution were used as such or diluted in 0.2 M Sodium phosphate buffer, pH=6.6.
A 1 mL sample (or calibration standard) was mixed with 1 mL 0.2 M Sodium phosphate buffer, pH=6.6 and 1 ml Potassium ferricyanide solution. The sample was incubated and protected from light at 50° C. for 20 min.
To the solution was added 1 mL Trichloroacetic acid with thorough mixing.
A 1 mL of the mixture was diluted with 1 ml H2O and 0.2 ml Iron-III-chloride and reacted for 10 minutes; The absorbance was then determined at 700 nm against H2O.
10 mM of amino acid and/or 10 mM sugar were dissolved in 10 ml 0.1 mM KH2PO4-buffer, pH=7.8. […]
1 ml sample (or calibration standard) solution) was mixed with 0.2 M Sodium phosphate buffer (pH=6.6) and 1 ml Potassium ferric(III)cyanide solution in water (1% w/v) and incubated at 50° C. for 20 minutes. […] The sample was incubated for 10 minutes and absorbance read at 700 nm against a water control. […]
Quantification was performed by linear regression of calibration test results for ascorbic acid. […]

OC[C@@H](O)[C@@H](O)[C@H](O)[C@H](O)CO [D-mannitol]
natural sweetness, times of that of sugar [1]: 0.55-0.65 times of that of sugar

N[C@@H](CCC(=O)O)C(=O)O [Glu]
% degradation ([2]; pH = 5.5): 3.65%
% degradation ([2]; pH = 7.0): 4.6%
% degradation ([2]; pH = 8.5): 7.62%

C=C1C[C@@]23CC[C@H]4[C@@](C)(CCC[C@@]4(C)C(=O)O[C@@H]4O[C@H](CO)[C@@H](O)[C@H](O)[C@H]4O)[C@@H]2CC[C@]1(O[C@@H]1O[C@H](CO)[C@@H](O)[C@H](O[C@@H]2O[C@H](CO)[C@@H](O)[C@H](O)[C@H]2O)[C@H]1O[C@@H]1O[C@H](CO)[C@@H](O)[C@H](O)[C@H]1O)C3 [Reb-A, Rebaudioside A]
anti-oxidant properties [3]: substantial anti-oxidant properties

C[C@H](CC[C@@H](O[C@@H]1O[C@H](CO)[C@@H](O)[C@H](O)[C@H]1O[C@@H]1O[C@H](CO)[C@@H](O)[C@H](O)[C@H]1O)C(C)(C)O)[C@H]1CC[C@@]2(C)[C@H]3CC=C4[C@@H](CC[C@H](O[C@@H]5O[C@H](CO[C@@H]6O[C@H](CO)[C@@H](O)[C@H](O)[C@H]6O)[C@@H](O)[C@H](O)[C@H]5O)C4(C)C)[C@]3(C)[C@H](O)C[C@]12C [mogroside IV]
natural sweetness, times of that of sugar [1]: 126 times of that of sugar

C[C@H](CC[C@@H](O[C@@H]1O[C@H](CO[C@@H]2O[C@H](CO)[C@@H](O)[C@H](O)[C@H]2O)[C@@H](O)[C@H](O)[C@H]1O[C@@H]1O[C@H](CO)[C@@H](O)[C@H](O)[C@H]1O)C(C)(C)O)[C@H]1CC[C@@]2(C)[C@@H]3CC=C4[C@@H](CC[C@H](O[C@@H]5O[C@H](CO[C@@H]6O[C@H](CO)[C@@H](O)[C@H](O)[C@H]6O)[C@@H](O)[C@H](O)[C@H]5O)C4(C)C)[C@]3(C)[C@H](O)C[C@]12C [mogroside V]
natural sweetness, times of that of sugar [1]: 256-344 times of that of sugar

Reference: US11849742B2, “Tasteful natural sweetener and flavor” (priority 2018, dated 2023)
